Test results as given in patent US11484564B2, “Adhesion prevention material” (priority 2017, dated 2022).
Entries after “also recorded” stand apart in the source; their conditions may differ. Non-standard residues stand in square brackets, D forms with d. No end group written: not given here. Hyp = O=C(O)[C@@H]1C[C@@H](O)CN1

Test system: flexor digitorum profundus tendon
Experiment: Evaluation of antiadhesive effect in cut and sutured flexor digitorum profundus tendon (adhesion score, 3 portions)
Type: in vivo, rabbit
Settings: 0.15 mL, 2 weeks
Method: As supplied animals, 13-week old rabbits (Kbl: JW, male) were used. By the same procedure as in the above-described Test Example 1, anesthesia, hair removal, holding, and sterilization were performed. Next, the skin covering a metatarsus of the left hind limb was incised longitudinally under anesthesia to expose flexor tendons. Among the exposed flexor tendons, a flexor digitorum profundus tendon was cut by sharp dissection using a scalpel. Then, the dissected region of the flexor digitorum profundus tendon was sutured with a suture (trade name: “6-0 Prolene”, Ethicon, Inc.) by a modified Kessler technique, hemostasis and washing with physiological saline were performed. Then, test samples were administered to the exposed flexor digitorum profundus tendon and its surroundings. The test samples were administered as follows. […] Then, the incised portion was sutured with a suture (trade name: “5-0 suture with needle for clinical use”, Matsuda Ika Kogyo CO., LTD.). The rabbit was fed with an e-collar around the neck to prevent self-injurious behavior. At 2 weeks after administration of the test sample, the rabbit was painlessly sacrificed by an overdose of Somnopentil (a trade name “pentobarbital sodium”, Kyoritsu Seiyaku Corporation) by auricular vein administration. The operated site was incised again, and degrees of adhesion were evaluated according to the criteria with respect to the following three portions: between flexor digitorum profundus tendon and gliding floor, between flexor digitorum profundus tendon and flexor digitorum superficialis tendon, and between flexor digitorum profundus tendon and other surrounding tissues. The total of the scores of the three portions was designated as a score for the individual. <Evaluation Criteria> 0: No adhesion 1: Easily dissectable from surrounding tissues by blunt dissection 2: Dissectable from surrounding tissues by blunt dissection 3: Dissection from surrounding tissues requires slightly sharp dissection 4: Dissection from surrounding tissues requires completely sharp dissection

[1] = Test Example 7, peptide 30% by weight with gel powder (B) 20% by weight
[2] = Test Example 9, tripeptide 30% by weight with gel powder (B) 20% by weight
[3] = Test Example 5, peptide 30% by weight with crosslinked-gelatin sponge gel powder (B) 20% by weight
[4] = Test Example 6, peptide 30% by weight with gel powder (B) 20% by weight

(Gly-Pro-Hyp)5 [oligopeptide 1] was tested, and the antiadhesive effect [1] was “antiadhesive effects were observed”.

(Gly-Pro-Hyp)10 [polypeptide 1] was tested, and the antiadhesive effect [1] was “antiadhesive effects were observed; also recorded: lower than those in tripeptide 4 and oligopeptide 1”.

For Arg-Pro-[Hyp] [tripeptide 7], the antiadhesive effect [2] was “antiadhesive effects were observed”.

Asn-Pro-[Hyp] [tripeptide 6] was tested, and the antiadhesive effect [2] was “antiadhesive effects were observed”.

In the case of “Gly-Ala-[Hyp] [tripeptide 2, reference compound]”, the antiadhesive effect [3] is reported as “the antiadhesive effect was inferior to the case in which peptide mixture 1 was used”.

In the case of “Gly-Pro [dipeptide 2, reference compound]”, the antiadhesive effect [4] is reported as “the antiadhesive effect was decreased”.

With “Gly-Pro-Ala [tripeptide 3, reference compound]” the antiadhesive effect [3] was “the antiadhesive effect was inferior to the case in which peptide mixture 1 was used”.

With Gly-Pro-[Hyp] [tripeptide 4] the antiadhesive effect [3] was “the same antiadhesive effect as in the case in which both peptide mixture 1 and the crosslinked-gelatin sponge gel were administered was observed”, the antiadhesive effect [4] was “contribute to the antiadhesive effect” and the antiadhesive effect [1] was “antiadhesive effects were observed”. The antiadhesive effect [2] was “antiadhesive effects were observed”.

For Ile-Pro-[Hyp] [tripeptide 5], the antiadhesive effect [2] was “antiadhesive effects were observed”.

With Pro-Hyp [dipeptide 1] the antiadhesive effect [4] was “contribute to the antiadhesive effect”.

In the case of Tyr-Pro-[Hyp] [tripeptide 8], the antiadhesive effect [2] is reported as “antiadhesive effects were observed”.
